Columns and labels:
[1] = system: 8505C cells; assay: Mouse orthotopic xenograft model of ATC, survival; conditions: for Median Survival: Nu/Nu mice, thyroid orthotopic 8505C, control 22 days; for Hazard ratio: relative Control (untreated) mice, orthotopic 8505C
[2] = for Histological evidence of toxicity: GI, affected/total (fraction) / Histological evidence of toxicity: Heart, affected/total (fraction) / Histological evidence of toxicity: Liver, Glycogen, affected/total (fraction) / Histological evidence of toxicity: Liver, Vaculation, affected/total (fraction) / Histological evidence of toxicity: Pancreas, affected/total (fraction): C57BL6/J; for Histological evidence of toxicity: GI, affected/total (fraction) / Histological evidence of toxicity: Heart, affected/total (fraction) / Histological evidence of toxicity: Liver, Glycogen, affected/total (fraction) / Histological evidence of toxicity: Liver, Vaculation, affected/total (fraction) / Histological evidence of toxicity: Pancreas, affected/total (fraction) / Lethality or lethargy: 7 days; for Lethality or lethargy: super-therapeutic doses
[3] = system: THJ-21T; assay: 72-hr survival dose-response of ATC cell line THJ-21T; assay type: cell-based; conditions: Homo sapiens
[4] = system: 8505C; assay: Flow cytometric sub-G1 programmed cell death; assay type: cell-based, human; conditions: short-term treatment, S10, Q20, S10Q20
[5] = system: THJ-16T; assay: 72-hr survival dose-response of ATC cell line THJ-16T
[6] = system: NFκB-p65 (RelA); assay: Western blot of NFκB-p65/RelA expression; assay type: cell-based, human; conditions: 8505C and THJ-16T cells, S 10 µM, Q 20 µM
[7] = system: 8505C cells; assay: CellTiter-Glo dose-response in 8505C cells after siRNA knockdown; assay type: cell-based, human; conditions: for IC50: Homo sapiens, 72 h
[8] = system: THJ-29T; assay: 72-hr survival dose-response of ATC cell line THJ-29T; assay type: cell-based; conditions: Homo sapiens

Compound | Median Survival [1] [days] | Hazard ratio [1] | Histological evidence of toxicity: GI, affected/total (fraction) ([2]; mouse, in vivo) | Histological evidence of toxicity: Heart, affected/total (fraction) ([2]; mouse, in vivo) | Histological evidence of toxicity: Liver, Glycogen, affected/total (fraction) ([2]; mouse, in vivo) | Histological evidence of toxicity: Liver, Vaculation, affected/total (fraction) ([2]; mouse, in vivo) | Histological evidence of toxicity: Pancreas, affected/total (fraction) ([2]; mouse, in vivo) | Lethality or lethargy [2] | IC50 [3] [µM] | sub-G1 DNA [4] | IC50 [8] [µM] | other results
COc1cccc2c1C(=O)c1c(O)c3c(c(O)c1C2=O)C[C@@](O)(C(=O)CO)C[C@@H]3O[C@H]1C[C@H](N)[C@H](O)[C@H](C)O1 [Doxorubicin] | 31 | 0.709 | 4/5 (0.80) | 0/5 (0) | 3/5 (0.60) | 4/5 (0.80) | 4/5 (0.80) | No lethality or lethargy |  |  |  | Level of platelets in blood ([2]; mouse, in vivo): increased level; Number of RBC's and hemoglobin (Hgb) ([2]; mouse, in vivo): reduction
CCN(CC)CCCC(C)Nc1c2ccc(Cl)cc2nc2ccc(OC)cc12 (centres unmarked) [Quinacrine] | 32 |  | 0/4 (0) | 1/5 (0.20) | 3/4 (0.75) | 3/4 (0.75) | 0/4 (0) |  | 15.4 | Increased | 12.7 | IC50 ([5]; Homo sapiens, 72 h): 18.4 µM; Expression of NFκB-p65 (RelA) [6]: inhibited; Impact of p65/RelA siRNA on survival dose-response relationship [7]: did not have any significant impact; Effect of Mcl-1 knockdown on IC50 ([7]; Mcl-1 siRNA): did not affect
CNC(=O)c1cc(Oc2ccc(NC(=O)Nc3ccc(Cl)c(C(F)(F)F)c3)cc2)ccn1 [Sorafenib] | 26 | 0.846 | 0/5 (0) | 0/5 (0) | 4/5 (0.80) | 4/5 (0.80) | 5/5 (1.00) | No lethality or lethargy | 12.4 | Increased | 4.5 | IC50 ([5]; THJ-16T, 72-hr survival): 31 µM; Increased sensitization by p65/RelA siRNA compared to Scr siRNA [7]: approximately 2 fold; IC50 ([7]; scrambled (Scr) siRNA): 10.5 µM; IC50 ([7]; siRNA targeting p65/RelA): 5.15 µM
